# System: rabbit aortic rings
# Assay: Assay B: In vitro vascular smooth muscle response for AII, antagonist activity in aortic rings
# Type: cell-based
# Settings: two determinations separated by /
# Method: Assay B: In Vitro Vascular Smooth Muscle-Response for AII
# The compounds of the invention were tested for antagonist activity in rabbit aortic rings. Male New Zealand white rabbits (2-2.5 kg) were sacrificed using an overdose of pentobarbital and exsanguinated via the carotid arteries. The thoracic aorta was removed, cleaned of adherent fat and connective tissue and then cut into 3-mm ring segments. The endothelium was removed from the rings by gently sliding a rolled-up piece of filter paper into the vessel lumen. The rings were then mounted in a water-jacketed tissue bath, maintained at 37° C., between moveable and fixed ends of a stainless steel wire with the moveable end attached to an FT03 Grass transducer coupled to a Model 7D Grass Polygraph for recording isometric force responses. The bath was filled with 20 ml of oxygenated (95% oxygen/5% carbon dioxide) Krebs solution of the following composition (mM); 130 NaCl, 15 NaHCO3, […], 1.2 NaH2PO4, 1.2 MgSO4, 2.5 CaCl2, and 11.4 glucose. The preparations were equilibrated for one hour before approximately one gram of passive tension was placed on the rings. Angiotensin II concentration-response curves were then recorded (3×10^−10 to 1×10^−5 M). Each concentration of AII was allowed to elicit its maximal contraction, and then AII was washed out repeatedly for 30 minutes before rechallenging with a higher concentration of AII. Aorta rings were exposed to the test antagonist at 10^−5 M for 5 minutes before challenging with AII. Adjacent segments of the same aorta ring were used for all concentration-response curves in the presence of absence of the test antagonist. The effectiveness of the test compound was expressed in terms of pA2 values and were calculated according to H. O. Schild [Br. J. Pharmacol. Chemother., 2, 189-206 (1947)]. The pA2 value is the concentration of the antagonist which increases the EC50 value for AII by a factor of two. Each test antagonist was evaluated in aorta rings from two rabbits.
row,SMILES,Assay B pA2
1,CCCc1nc(CCC)n(Cc2ccc(-c3ccccc3-c3nnn[nH]3)cc2)n1 [Compound 12],8.59
2,CCCCCc1nc(CCCCC)n(Cc2ccc(-c3ccccc3-c3nnn[nH]3)cc2)n1 [Compound 13],8.85
3,CCCCc1nc(CCC)nn1Cc1ccc(-c2ccccc2-c2nnn[nH]2)cc1 [Compound 14],8.71
4,CCCCc1nc(CCC)n(Cc2ccc(-c3ccccc3-c3nnn[nH]3)cc2)n1 [Compound 15],8.30
5,CCCCc1nc(CCC(C)C)n(Cc2ccc(-c3ccccc3-c3nnn[nH]3)cc2)n1 [Compound 16],9.24
6,CCCCc1nc(CCC(C)C)nn1Cc1ccc(-c2ccccc2-c2nnn[nH]2)cc1 [Compound 17],8.40
7,CCCCc1ncnn1Cc1ccc(-c2ccccc2C(=O)O)cc1 [Compound 18],6.09
8,CCCCc1ncn(Cc2ccc(-c3ccccc3C(=O)O)cc2)n1 [Compound 19],5.35
9,CCCCc1nc(-c2ccccc2)n(Cc2ccc(-c3ccccc3-c3nnn[nH]3)cc2)n1 [Compound 22],6.46
10,CCCCc1nc(C(OC)OC)nn1Cc1ccc(-c2ccccc2-c2nnn[nH]2)cc1 [Compound 24],7.73
11,CCCCc1nc(CCc2ccccc2)n(Cc2ccc(-c3ccccc3-c3nnn[nH]3)cc2)n1 [Compound 25],6.73
12,CCCCc1nc(CCc2ccccc2)nn1Cc1ccc(-c2ccccc2-c2nnn[nH]2)cc1 [Compound 26],9.66
13,CCCCc1nc(C(=O)CCC)nn1Cc1ccc(-c2ccccc2-c2nnn[nH]2)cc1 [Compound 30],7.88
14,CCCCc1nc(CNC(=O)OC(C)(C)C)nn1Cc1ccc(-c2ccccc2-c2nnn[nH]2)cc1 [Compound 35],7.47
15,CCCCc1nc(CN)n(Cc2ccc(-c3ccccc3-c3nnn[nH]3)cc2)n1 [Compound 36],5.68
16,CCCCc1nc(CC(OCC)OCC)n(Cc2ccc(-c3ccccc3-c3nnn[nH]3)cc2)n1 [Compound 37],6.85

row,SMILES,Assay B pA2
1,CCCCc1nc(CC)nn1Cc1ccc(-c2ccccc2-c2nnn[nH]2)cc1 [Compound 39],7.84
2,CCCCc1nc(CNC(=O)CCC(NC(C)=O)C(=O)OC(C)(C)C)nn1Cc1ccc(-c2ccccc2-c2nnn[nH]2)cc1 (stereo not shown) [Compound 41],5.96
3,CCCCc1nc(CCC2CCCCC2)n(Cc2ccc(-c3ccccc3-c3nnn[nH]3)cc2)n1 [Compound 42],6.26
4,CCCCc1nc(CCCO)nn1Cc1ccc(-c2ccccc2-c2nnn[nH]2)cc1 [Compound 45],8.24
5,CCCCc1nc(CCCO)n(Cc2ccc(-c3ccccc3-c3nnn[nH]3)cc2)n1 [Compound 46],6.64
6,CCCCc1nc(C(F)F)nn1Cc1ccc(-c2ccccc2-c2nnn[nH]2)cc1 [Compound 47],7.58
7,CCCCc1nc(C(=O)Cc2ccccc2)nn1Cc1ccc(-c2ccccc2-c2nnn[nH]2)cc1 [Compound 50],7.89
8,CCCCc1nc(C(F)(F)Cc2ccccc2)nn1Cc1ccc(-c2ccccc2-c2nnn[nH]2)cc1 [Compound 51],8.51
9,CCCCc1nc(C(=O)O)nn1Cc1ccc(-c2ccccc2-c2nnn[nH]2)cc1 [Compound 52],8.12
10,CCCCc1ncnn1Cc1ccc(-c2ccccc2-c2nnn[nH]2)cc1 [Compound 53],7.83
11,CCCCc1nc(CCCC2CCCCC2)nn1Cc1ccc(-c2ccccc2-c2nnn[nH]2)cc1 [Compound 58],6.57
12,CCCCc1nc(CC23CC4CC(CC(C4)C2)C3)nn1Cc1ccc(-c2ccccc2-c2nnn[nH]2)cc1 [Compound 62],8.61
13,CCCCc1nc(CCC(=O)O)nn1Cc1ccc(-c2ccccc2-c2nnn[nH]2)cc1 [Compound 63],7.67
14,CCCCc1nc(CCC(=O)O)n(Cc2ccc(-c3ccccc3-c3nnn[nH]3)cc2)n1 [Compound 64],6.77
15,CCCCc1nc(C2CCCCC2)n(Cc2ccc(-c3ccccc3-c3nnn[nH]3)cc2)n1 [Compound 65],7.75
